Reference: patent publication US10433545B2, “Non-streaking durable composition for cleaning and disinfecting hard surfaces” (Ecolab USA Inc., priority 2016, dated 2019)

Key:
[1] = list of typical surfactants; CMC measured in water at 20 to 25 degrees C; cited from earlier work
feline calicivirus = experiment: FCV (feline calicivirus, norovirus surrogate) log reduction; format: cell-based; conditions: surfactant combined with Bardac 2050 quat
Method: Variations of this formula were then tested against feline calicivirus, which is norovirus surrogate. Bardac 2050 by itself was the control.
Quat was tested with each surfactant alone to determine which surfactant was interfering. Also, Lonzabac 12 was added to one formula. Streak testing was performed on each formula. FCV (feline calicivirus) testing was done in 400 ppm hard water with a 10 minute contact time and soil.

S. aureus = experiment: OECD method log reduction, S. aureus; format: cell-based, Staphylococcus aureus; conditions: 400 ppm water; 750 ppm quat
Method: The germicidal test methods referred to are those approved by the EPA for germicide registration in force at the time of the patent application. Staphylococcus aureus is the ATCC 6538 strain.
Formulas with passable or ok glass performance and formulas of interest were then tested for antimicrobial efficacy.
Four log reduction is considered passing for this method.

Row | SMILES | CMC (ppm) [1] [ppm] | FCV kill, result in words (feline calicivirus) | OECD log reduction Staph (S. aureus) [log]
1 | CCCCC(CC)CO[C@H]1O[C@H](CO)[C@@H](O)[C@H](O)[C@H]1O (stereo partly drawn) [AG 6202, a-D-Glucopyranoside, 2-ethylhexyl] | 14000 | does not | 
2 | CCCCCCCCCC[N+](C)(C)CCCCCCCCCC.[Cl-] [Bardac 2250, Didecyldimethylammoniumchloride] |  |  | 1.6
3 | CCCCCCCCCCCC[N+](C)(C)[O-] [Barlox 12, Lauryldimethyl amine oxide] |  | interferes with FCV kill | 
